Laboratory results taken from PMC6017631, “The Effect of Combining Natural Terpenes and Antituberculous Agents against Reference and Clinical Mycobacterium tuberculosis Strains” (Molecules : A Journal of Synthetic Chemistry and Natural …, 2018).
≈ marks a conversion by molar mass, not a printed value. Read-outs that look alike come from different tables or passages of the source.

Tests used:
[1] = test system: clinical isolate 85/13 (Beijing, SIRE resistant); assay: microbe, parasite or virus in culture; assay type: cell-based, Mycobacterium tuberculosis
[2] = test system: clinical isolate 126 (INH resistant); assay: microbe, parasite or virus in culture; assay type: cell-based, Mycobacterium tuberculosis
[3] = test system: clinical isolate 12331 (IRE resistant); assay: microbe, parasite or virus in culture; assay type: cell-based, Mycobacterium tuberculosis
[4] = test system: M. tuberculosis H37Rv; conditions: H37Rv and some Mtb drug-resistant clinical isolates ref 2, 60, 61, cited from earlier work
[5] = compounds tested separately, 85/13
[6] = compounds tested separately, 126
[7] = compounds tested separately, 12331
[8] = Mycobacterium tuberculosis, read-out: MIC for EMB in a Presence of Terpenes
[9] = Mycobacterium tuberculosis, read-out: MIC for INH in a Presence of Terpenes
[10] = Mycobacterium tuberculosis, read-out: MIC for RMP in a Presence of Terpenes

**Q.** With (S)-limonene as the compound, how does the MIC [1, 5] read?
**A.** Its MIC is over 512 µg/mL.

**Q.** And the MIC [2, 6]?
**A.** The MIC was 256 µg/mL.

**Q.** What about the MIC [3, 7] of the same compound?
**A.** Its MIC is 512 µg/mL.

**Q.** With `CC(=O)c1c(O)c(C)c(O)c2c1OC1=CC(=O)C(C(C)=O)C(=O)C12C` (stereo not shown) [usnic acid] as the compound, how does the FICI ([4]; with rifampicin) read?
**A.** The FICI was 0.25–0.38.

**Q.** Which MIC ([1]; Mycobacterium tuberculosis) does the source give for `C=C1CCC2(C(C)C)CC12` (stereo not shown) [sabinene] here?
**A.** The MIC was 512 µg/mL (≈ 3760 µM).

**Q.** And the MIC [1, 8]?
**A.** Its MIC is 16 µg/mL.

**Q.** What about the MIC [1, 9] of the same compound?
**A.** Its MIC is 16 µg/mL.

**Q.** And the MIC [1, 10]?
**A.** The MIC was 128 µg/mL.

**Q.** And the MIC ([2]; Mycobacterium tuberculosis)?
**A.** Its MIC is 128 µg/mL (≈ 940 µM).

**Q.** And the MIC [2, 8]?
**A.** The MIC was 0.25 µg/mL.

**Q.** What about the MIC [2, 9] of the same compound?
**A.** The MIC was 0.5 µg/mL.

**Q.** And the MIC [2, 10]?
**A.** Its MIC is 0.25 µg/mL.

**Q.** What about the MIC ([3]; Mycobacterium tuberculosis) of the same compound?
**A.** Its MIC is over 512 µg/mL.

**Q.** And the MIC [3, 8]?
**A.** Its MIC is 16 µg/mL.

**Q.** And the MIC [3, 9]?
**A.** Its MIC is 16 µg/mL.

**Q.** What about the MIC [3, 10] of the same compound?
**A.** Its MIC is 256 µg/mL.

**Q.** Which MIC ([1]; Mycobacterium tuberculosis) does the source give for `CC[C@@H](CO)NCCN[C@@H](CC)CO` [EMB, ethambutol, reference compound] here?
**A.** Its MIC is 16 µg/mL (≈ 78.3 µM).

**Q.** What about the MIC ([2]; Mycobacterium tuberculosis) of the same compound?
**A.** Its MIC is 0.25 µg/mL (≈ 1.22 µM).

**Q.** What about the MIC ([3]; Mycobacterium tuberculosis) of the same compound?
**A.** Its MIC is 16 µg/mL (≈ 78.3 µM).

**Q.** For `C=CC(=C)CCC=C(C)C` [myrcene], which MIC ([1]; Mycobacterium tuberculosis) is on record?
**A.** Its MIC is over 512 µg/mL.

**Q.** And the MIC [1, 8]?
**A.** Its MIC is 16 µg/mL.

**Q.** What about the MIC [1, 9] of the same compound?
**A.** Its MIC is 16 µg/mL.

**Q.** And the MIC [1, 10]?
**A.** Its MIC is 128 µg/mL.

**Q.** And the MIC ([2]; Mycobacterium tuberculosis)?
**A.** Its MIC is 256 µg/mL (≈ 1880 µM).

**Q.** What about the MIC [2, 8] of the same compound?
**A.** The MIC was 0.25 µg/mL.

**Q.** What about the MIC [2, 9] of the same compound?
**A.** Its MIC is 0.5 µg/mL.

**Q.** And the MIC [2, 10]?
**A.** Its MIC is 0.25 µg/mL.

**Q.** What about the MIC ([3]; Mycobacterium tuberculosis) of the same compound?
**A.** The MIC was 512 µg/mL (≈ 3760 µM).

**Q.** And the MIC [3, 8]?
**A.** The MIC was 16 µg/mL.

**Q.** And the MIC [3, 9]?
**A.** Its MIC is 16 µg/mL.

**Q.** And the MIC [3, 10]?
**A.** Its MIC is 256 µg/mL.

**Q.** Which results are given for `C=C[C@]1(C)CC[C@@H](C(=C)C)C[C@H]1C(=C)C` [β-elemene]?
**A.** MIC [1, 5]: >512 µg/mL; MIC [2, 6]: 256 µg/mL (≈ 1250 µM); MIC [3, 7]: 256 µg/mL (≈ 1250 µM)

**Q.** For `NNC(=O)c1ccncc1` [INH, isoniazid, reference compound], which MIC ([1]; Mycobacterium tuberculosis) is on record?
**A.** Its MIC is 16 µg/mL (≈ 117 µM).

**Q.** What about the MIC ([2]; Mycobacterium tuberculosis) of the same compound?
**A.** Its MIC is 0.5 µg/mL (≈ 3.65 µM).

**Q.** What about the MIC ([3]; Mycobacterium tuberculosis) of the same compound?
**A.** Its MIC is 16 µg/mL (≈ 117 µM).

**Q.** Which MIC [1, 5] does the source give for `CC(C)=CCC[C@](C)(O)C1CC=C(C)CC1` (stereo partly shown) [bisabolol] here?
**A.** Its MIC is 128 µg/mL (≈ 576 µM).

**Q.** And the MIC [2, 6]?
**A.** The MIC was 32 µg/mL (≈ 144 µM).

**Q.** And the MIC [3, 7]?
**A.** The MIC was 256 µg/mL (≈ 1150 µM).

**Q.** Which FICI ([4]; in combination with isoniazid, rifampicin and ethambutol) does the source give for `CCCCCCCC/C=C\CCCCCCCC(=O)O` [oleic acid] here?
**A.** The FICI was 0.09–0.36.

**Q.** Which results are given for `CC1=CCC2CC1C2(C)C` (stereo not drawn) [α-pinene]?
**A.** MIC ([1]; Mycobacterium tuberculosis): 512 µg/mL (≈ 3760 µM); MIC [1, 8]: 16 µg/mL; MIC [1, 9]: 16 µg/mL; MIC [1, 10]: 128 µg/mL; MIC ([2]; Mycobacterium tuberculosis): 128 µg/mL (≈ 940 µM); MIC [2, 8]: 0.25 µg/mL; MIC [2, 9]: 0.5 µg/mL; MIC [2, 10]: 0.25 µg/mL; MIC ([3]; Mycobacterium tuberculosis): > 512 µg/mL; MIC [3, 8]: 16 µg/mL; MIC [3, 9]: 16 µg/mL; MIC [3, 10]: 256 µg/mL

**Q.** With `CO[C@H]1/C=C/O[C@@]2(C)Oc3c(C)c(O)c4c(O)c(c(/C=N/N5CCN(C)CC5)c(O)c4c3C2=O)NC(=O)/C(C)=C\C=C\[C@H](C)[C@H](O)[C@@H](C)[C@@H](O)[C@@H](C)[C@H](OC(C)=O)[C@@H]1C` [RMP, rifampicin, reference compound] as the compound, how does the MIC ([1]; Mycobacterium tuberculosis) read?
**A.** The MIC was 128 µg/mL (≈ 156 µM).

**Q.** And the MIC ([2]; Mycobacterium tuberculosis)?
**A.** Its MIC is 0.25 µg/mL (≈ 0.304 µM).

**Q.** And the MIC ([3]; Mycobacterium tuberculosis)?
**A.** The MIC was 256 µg/mL (≈ 311 µM).

**Q.** What does the source list for `Cc1cc(O)c2c(c1)C(=O)C=CC2=O` [7-methyljuglone]?
**A.** FICI ([4]; in combination with isoniazid): 0.2; FICI ([4]; with rifampicin): 0.5

**Q.** With `C=C(C)[C@H]1CC=C(C)CC1` [(R)-limonene] as the compound, how does the MIC [1, 5] read?
**A.** The MIC was 256 µg/mL (≈ 1880 µM).

**Q.** What about the MIC [2, 6] of the same compound?
**A.** The MIC was 128 µg/mL (≈ 940 µM).

**Q.** And the MIC [3, 7]?
**A.** Its MIC is 128 µg/mL (≈ 940 µM).
